Here are results for 3 molecules from US7968556B2, “Heteroaryl compounds, compositions thereof, and methods of treatment therewith” (Signal Pharmaceuticals, LLC, priority 2006, dated 2011).

This assay deals with T1, IKK-2 (Homo sapiens, UniProt O14920, S177E/S181E).
T1 sequence (O14920 1-756 S177E/S181E): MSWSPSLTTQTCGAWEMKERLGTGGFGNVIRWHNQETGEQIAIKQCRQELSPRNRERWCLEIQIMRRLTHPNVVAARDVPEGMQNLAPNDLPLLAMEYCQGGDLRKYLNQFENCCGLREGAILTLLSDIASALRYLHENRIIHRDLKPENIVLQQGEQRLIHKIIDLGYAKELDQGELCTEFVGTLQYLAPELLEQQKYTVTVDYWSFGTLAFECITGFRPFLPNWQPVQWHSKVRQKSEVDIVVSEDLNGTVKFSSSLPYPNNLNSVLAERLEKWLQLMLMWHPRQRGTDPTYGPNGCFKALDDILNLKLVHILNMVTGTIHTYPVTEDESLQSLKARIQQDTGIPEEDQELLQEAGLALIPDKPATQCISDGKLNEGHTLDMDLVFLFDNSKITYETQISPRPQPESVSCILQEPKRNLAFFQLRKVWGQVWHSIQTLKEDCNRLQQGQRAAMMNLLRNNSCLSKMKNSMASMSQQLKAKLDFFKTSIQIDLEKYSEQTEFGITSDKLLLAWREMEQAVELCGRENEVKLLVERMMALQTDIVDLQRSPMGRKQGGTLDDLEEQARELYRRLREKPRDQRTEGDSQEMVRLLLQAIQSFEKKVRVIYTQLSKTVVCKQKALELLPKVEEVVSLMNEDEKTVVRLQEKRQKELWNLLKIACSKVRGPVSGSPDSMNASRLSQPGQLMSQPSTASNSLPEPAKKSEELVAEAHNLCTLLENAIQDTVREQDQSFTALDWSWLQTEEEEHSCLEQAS
Put plainly: IKK-2 screening assay (IKK2EE 33P Assay / IKK2EE NEMO HTRF Assay). Type of assay: biochemical. The method, then: The following is an example of an assay that can be used to determine the IKK2EE inhibitory activity of a test compound.
A reaction buffer (pH 7.8) is prepared containing HEPES (20 mM), MgCl2 (10 mM), EDTA (0.1 mM), DTT (1 mM) and Triton X-100 (0.004%). IKK2EE (0.75 μg/ml is used. GST-IKBα (50 μg/ml) is used as substrate. Adenosine 5′-triphosphate (1.5 μM with ^33P-ATP 5 nCi/μl) is used. Reactions are stopped with trichloroacetic acid (6.25%).
Appropriate amounts of test compounds or controls in 100% DMSO are added to the assay plate. A peptide-substrate solution (PSS) is prepared by adding peptide stock to an appropriate volume of buffer (peptide concentration in the PSS will be about 100 μg/ml). An enzyme-peptide solution (EPS) is prepared by adding enzyme stock to an appropriate volume of PSS (the enzyme concentration in the EPS will be about 1 μg/ml). An ATP solution is prepared by adding ATP stock to an appropriate volume of buffer (the ATP concentration will be 15 μM).
85 μl of EPS is added to the assay wells (or PSS to positive control wells) of 96 well polypropylene plates. The ATP solution is then completed by adding ^33P-ATP (to a final concentration of 50 μCi/ml).
The reaction is initiated by adding 10 μl ATP solution to each well. Plates are shaken from about 12 seconds and allowed to incubate at room temperature for 1 hours. 100 μl of trichloroacetic acid solution (12.5%) is added to stop the reaction and the plates are incubated at room temperature for at least 10 minutes. The assay plates are harvested onto a Millipore Multiscreen harvest Plate FC using an appropriate harvester and the harvest plates are washed with 1×PBS solution for about 10 seconds (continuous flow). Harvest plates are allowed to dry thoroughly and the bottoms of the plates are sealed. 20-50 μl of Microscint20 is added to each well, tops are sealed and plates are read using an appropriate scintillation counter.
A reaction buffer (pH 7.6) is prepared containing HEPES (20 mM), MgCl2 (10 mM), EDTA (0.05 mM), DTT (1 mM) and Triton X-100 (0.004%). IKK2EE-NEMO (0.7 μg/ml is used. GST-IKBα (0.5 μg/ml) is used as substrate. Adenosine 5′-triphosphate (1.5 μM) is used. Detection reagents used are mouse anti-P-IKBα (30 ng/ml), Eu anti-mouse (300 ng/ml) and Cy5 anti-GST (11.5 μg/ml). Reactions are stopped with EDTA (20 mM).
An enzyme solution (ES) is prepared by adding enzyme stock to an appropriate volume of buffer (enzyme concentration in the ES will be about 1.7 ng/ml). A detection mixture (DM) is prepared by adding ATP (final conc. 3.75 μM), mouse anti-P-IKBα (final conc. 75 ng/ml), GST-IKBα (final conc. 1.26 μg/ml), Eu anti-mouse in buffer (final conc. 750 ng/ml).
5 μl of compound (solvated in 10% DMSO) is added to assay wells (or 10% DMSO to control wells) of low binding reaction plates. […] ES is added to assay wells (or buffer to control wells) and the reaction is initiated by adding 10 μl DM to all wells. Plates are incubated at room temperature for 45 minutes. Stop mixture is prepared by adding EDTA (final conc. 70 mM) and Cy5 anti-GST (final conc. 40 μg/ml) to an appropriate volume of buffer. Stop mixture is added and plates are shaken for 20 seconds and incubated at room temperature for at least 3 hours (preferably in the dark). Plates are read on an Analyst HT using Multi-Method HTRF.

In turn, `COc1ccccc1-n1c(=O)[nH]c2c(C(N)=O)nc(-c3ccc(O)cc3)nc21` [Compound 8, 2-(4-hydroxyphenyl)-9-(2-methoxyphenyl)-8-oxo-8,9-dihydro-7H-purine-6-carboxamide] returned an IC50 of more than 30 µM.

Consider `COc1ccccc1-n1c(=O)[nH]c2c(C(N)=O)nc(-c3ccnc(O)c3)nc21` [Compound 13, 2-(2-hydroxypyridin-4-yl)-9-(2-methoxyphenyl)-8-oxo-8,9-dihydro-7H-purine-6-carboxamide], for which the IC50 is more than 30 µM.

Turning to `NC(=O)c1nc(-c2cccnc2)nc2c1[nH]c(=O)n2[C@H]1CC[C@H](O)CC1` [Compound 50, 9-(trans-4-Hydroxycyclohexyl)-8-oxo-2-(pyridin-3-yl)-8,9-dihydro-7H-purine-6-carboxamide], the IC50 lay within 0.1 to 5 µM.

For orientation: IC50 means the point on the concentration scale where inhibition reaches its midpoint.
